Structures are written as SMILES.

Our source for the IC50 values is patent US11053253B2, “Macrocyclic compounds for treatment of medical disorders” (Achillion Pharmaceuticals, Inc., priority 2017, dated 2021).

In the assay the target is Human Factor D (Homo sapiens (Human), UniProt P00746). The assay is described as follows: Human Factor D Assay. Format: biochemical. To be noted: Human Factor D 80 nM, substrate Z-L-Lys-SBzl, DTNB, A405; read-out: IC50 (Stars). In a few lines: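 Serum-purified enzyme (80 nM final) was preincubated with compound 5 min at room temperature in 50 mM Tris, 1M NaCl, pH 7.5. Z-L-Lys-SBzl and DTNB ([…] each, final) were added and A405 followed every 30 s for 30 min; IC50 from nonlinear regression of reaction rates.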
Chain of Human Factor D (P00746 26-253): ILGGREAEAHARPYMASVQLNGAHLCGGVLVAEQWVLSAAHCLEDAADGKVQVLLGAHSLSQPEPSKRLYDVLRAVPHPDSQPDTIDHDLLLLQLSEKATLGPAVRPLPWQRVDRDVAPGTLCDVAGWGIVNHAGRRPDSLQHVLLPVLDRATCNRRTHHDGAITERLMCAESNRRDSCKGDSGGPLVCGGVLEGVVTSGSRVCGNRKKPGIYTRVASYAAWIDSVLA
Regarding `CC(=O)c1nn2c3c(cc(-c4cnc(C)nc4)cc13)CCCCCC(C)(C)C(=O)N(C)C[C@@]13C[C@@H](C(=O)Nc4ccn(CC(F)(F)F)n4)N(C(=O)C2)[C@@H]1C3` [Compound T-191], the IC50 is < 1000 nM.

As for `CC(=O)c1nn(CC(=O)N2[C@H]3C[C@@]4(COCC=CCOCc5ccc(Br)nc5NC3=O)C[C@@H]24)c2c(C)cc(-c3cnc(C)nc3)cc12` [Compound T-192], the IC50 is < 1000 nM.

With `CC(=O)c1nn(CC(=O)N2[C@H]3C[C@@]4(COCC=CCOCc5ccc(Br)nc5NC3=O)C[C@@H]24)c2c(C)nc(-c3cnc(C)nc3)cc12` [Compound T-193], the IC50 was < 1000 nM.

With `CC(=O)c1nn(CC(=O)N2C[C@@]3(F)COCCCCCCCCc4ccc(Br)nc4NC(=O)[C@@H]2C3)c2ccc(-c3cnc(C)nc3)cc12` [Compound T-194], the IC50 was < 1000 nM.

As for `CC(=O)c1nn(CC(=O)N2C[C@@]3(F)COCCCCCCc4ccc(Br)nc4NC(=O)[C@@H]2C3)c2ccc(-c3cnc(C)nc3)cc12` [Compound T-195], the IC50 was < 1000 nM.

Take `CC(=O)c1nn2c3c(cc(-c4cnc(C)nc4)cc13)CCCCCCC(=O)NC[C@@]13C[C@@H](C(=O)NC[Si](C)(C)C)N(C(=O)C2)[C@@H]1C3` [Compound T-196]: the IC50 fell in the range of 1000 to 10000 nM.

Turning to `CC(=O)c1nn2c3c(cc(-c4cnc(C)nc4)cc13)CCCCCCC(=O)NC[C@@]13C[C@@H](C(=O)NC/C(F)=C(/C)c4ccccc4)N(C(=O)C2)[C@@H]1C3` [Compound T-197], the 50% inhibitory concentration (IC50) is < 1000 nM.

With `CC(=O)c1nn2c3c(cc(-c4cnc(C)nc4)cc13)CCCCCCC(=O)NC[C@@]13C[C@@H](C(=O)NCC(F)=C(C)C)N(C(=O)C2)[C@@H]1C3` [Compound T-198], the IC50 is < 1000 nM.

As for `CCCCNC(=O)[C@@H]1C[C@]23CNC(=O)CCCCCCc4cc(-c5cnc(C)nc5)cc5c(C(C)=O)nn(c45)CC(=O)N1[C@@H]2C3` [Compound T-199], the IC50 is < 1000 nM.

Turning to `CCCCCNC(=O)[C@@H]1C[C@]23CNC(=O)CCCCCCc4cc(-c5cnc(C)nc5)cc5c(C(C)=O)nn(c45)CC(=O)N1[C@@H]2C3` [Compound T-200], the IC50 was < 1000 nM.

With `CC(=O)c1nn2c3c(cc(-c4cnc(C)nc4)cc13)CCCCCCC(=O)NC[C@@]13C[C@@H](C(=O)NCC(C)(C)C)N(C(=O)C2)[C@@H]1C3` [Compound T-201], the IC50 is < 1000 nM.

Consider `CC(=O)c1nn2c3c(cc(-c4cnc(C)nc4)cc13)CCCCCCC(=O)N(C)C[C@@]13C[C@@H](C(=O)Nc4ccn(CC(F)(F)F)n4)N(C(=O)C2)[C@@H]1C3` [Compound T-203], for which the IC50 was < 1000 nM.

Regarding `CC(=O)c1nn2c3c(cc(-c4cnc(C)nc4)cc13)CC=CCCCC(=O)N(C)C[C@@]13C[C@@H](C(=O)Nc4ccn(CC(F)(F)F)n4)N(C(=O)C2)[C@@H]1C3` [Compound T-204], the IC50 was < 1000 nM.

Take `CC(=O)c1nn2c3c(cc(-c4cnc(C)nc4)cc13)CCCCC[C@@H](C)C(=O)N(C)C[C@@]13C[C@@H](C(=O)Nc4nc(C(F)(F)F)ccc4C)N(C(=O)C2)[C@@H]1C3` [Compound T-205]: the IC50 was < 1000 nM.

Regarding `CC(=O)c1nn2c3c(cc(-c4cnc(C)nc4)cc13)CCCCCCC(=O)NC[C@@]13C[C@@H](C(=O)N[C@@H](C)COC(F)(F)F)N(C(=O)C2)[C@@H]1C3` [Compound T-206], the IC50 is < 1000 nM.

As for `CC(=O)c1nn2c3c(cc(-c4cnc(C)nc4)cc13)CCCCCCC(=O)NC[C@@]13C[C@@H](C(=O)N[C@H](C)COC(F)(F)F)N(C(=O)C2)[C@@H]1C3` [Compound T-207], the half-maximal inhibitory concentration (IC50) is < 1000 nM.

Take `CC(=O)c1nn2c3c(cc(-c4cnc(C)nc4)cc13)CCCCCCC(=O)NC[C@@]13C[C@@H](C(=O)NCCOC(F)(F)F)N(C(=O)C2)[C@@H]1C3` [Compound T-208]: the IC50 is < 1000 nM.

In the case of `COc1cc(Br)nc(NC(=O)[C@@H]2C[C@]34CNC(=O)CCCC=CCc5cc(-c6cnc(C)nc6)cc6c(C(C)=O)nn(c56)CC(=O)N2[C@@H]3C4)c1` [Compound T-209], the IC50 is < 1000 nM.

Take `COc1cc(Br)nc(NC(=O)[C@@H]2C[C@]34CNC(=O)CCCCCCc5cc(-c6cnc(C)nc6)cc6c(C(C)=O)nn(c56)CC(=O)N2[C@@H]3C4)c1` [Compound T-210]: the IC50 is < 1000 nM.

Consider `CC(=O)c1nn2c3c(cc(-c4cnc(C)nc4)cc13)CC=CCCCC(=O)NC[C@@]13C[C@@H](C(=O)Nc4nc(Br)ccc4C4CC4)N(C(=O)C2)[C@@H]1C3` [Compound T-211], for which the IC50 is < 1000 nM.

With `CC(=O)c1nn2c3c(cc(-c4cnc(C)nc4)cc13)CCCCCCC(=O)NC[C@@]13C[C@@H](C(=O)Nc4nc(Br)ccc4C4CC4)N(C(=O)C2)[C@@H]1C3` [Compound T-212], the IC50 was < 1000 nM.

Consider `CC(=O)c1nn2c3c(cc(-c4cnc(C)nc4)cc13)CCCCCCC(=O)NC[C@@]13C[C@@H](C(=O)Nc4ccc(F)c(Br)n4)N(C(=O)C2)[C@@H]1C3` [Compound T-213], for which the IC50 was < 1000 nM.

For `CC(=O)c1nn2c3c(cc(-c4cnc(C)nc4)cc13)CC=CCCCC(=O)NC[C@@]13C[C@@H](C(=O)Nc4ccc(F)c(Br)n4)N(C(=O)C2)[C@@H]1C3` [Compound T-214], the IC50 was < 1000 nM.

Regarding `CC(=O)c1nn2c3c(cc(-c4cnc(C)nc4)cc13)CC=CCCCC(=O)NC[C@@]13C[C@@H](C(=O)Nc4cc(C)c(F)c(Br)n4)N(C(=O)C2)[C@@H]1C3` [Compound T-217], the IC50 is < 1000 nM.

With `CC(=O)c1nn2c3c(cc(-c4cnc(C)nc4)cc13)CCCCCCC(=O)NC[C@@]13C[C@@H](C(=O)Nc4cc(C)c(F)c(Br)n4)N(C(=O)C2)[C@@H]1C3` [Compound T-218], the IC50 was < 1000 nM.

For the compound `CC(=O)c1nn2c3c(cc(-c4cnc(C)nc4)cc13)CC=CCCCC(=O)NC[C@@]13C[C@@H](C(=O)Nc4nc(C(F)(F)F)ccc4C)N(C(=O)C2)[C@@H]1C3` [Compound T-219], the half-maximal inhibitory concentration (IC50) was < 1000 nM.

For `CC(=O)c1nn2c3c(cc(-c4cnc(C)nc4)cc13)CCCCCCC(=O)NC[C@@]13C[C@@H](C(=O)Nc4nc(C(F)(F)F)ccc4C)N(C(=O)C2)[C@@H]1C3` [Compound T-220], the IC50 was < 1000 nM.

In the case of `CC(=O)c1nn2c3c(cc(-c4cnc(C)nc4)cc13)CCCCCCC(=O)NC[C@@]13C[C@@H](C(=O)Nc4nc(C#N)ccc4C)N(C(=O)C2)[C@@H]1C3` [Compound T-221], the IC50 is < 1000 nM.

For the compound `CC(=O)c1nn2c3c(cc(-c4cnc(C)nc4)cc13)CCCCCCC(=O)NC[C@@]13C[C@@H](C(=O)Nc4cccc(-c5cc(F)c(F)cc5Cl)c4F)N(C(=O)C2)[C@@H]1C3` [Compound T-222], the IC50 is < 1000 nM.

For the compound `CC(=O)c1nn2c3c(cc(-c4cnc(C)nc4)cc13)CCCCCCC(=O)NC[C@@]13C[C@@H](C(=O)Nc4cccc(OC(F)(F)F)c4F)N(C(=O)C2)[C@@H]1C3` [Compound T-223], the IC50 was < 1000 nM.

As for `CC(=O)c1nn(CC(=O)N2[C@H]3C[C@@]4(CNC(=O)C(C)(C)C=CCOCc5ccc(C(F)(F)F)nc5NC3=O)C[C@@H]24)c2cnc(-c3cnc(C)nc3)cc12` [Compound T-224], the IC50 was < 1000 nM.

`CC(=O)c1nn(CC(=O)N2[C@H]3C[C@@]4(CNC(=O)C(C)(C)CCCOCc5ccc(C(F)(F)F)nc5NC3=O)C[C@@H]24)c2cnc(-c3cnc(C)nc3)cc12` [Compound T-225]: the IC50 was < 1000 nM.

As for `CC(=O)c1nn2c3c(cc(-c4cnc(C)nc4)cc13)CCCCCCC(=O)NC[C@@]13C[C@@H](C(=O)N[C@@H](C)CC(C)(C)C)N(C(=O)C2)[C@@H]1C3` [Compound T-226], the IC50 is < 1000 nM.

One may read the IC50 as the concentration at which inhibition is half-maximal.
